# Assay results: ChEMBL document CHEMBL1153872, “Synthesis, analgesic, anti-inflammatory and antimicrobial studies of 2,4-dichloro-5-fluorophenyl containing thiazolotriazoles” (2009)
# What was measured:
# Type in all cases: functional
# Talaromyces marneffei [1] = assay: Antifungal activity against Penicillium marneffei after 3 to 4 days by agar diffusion method
# Candida albicans [2] = assay: Antifungal activity against Candida albicans after 3 to 4 days by agar diffusion method
# Streptococcus pyogenes [3] = assay: Antibacterial activity against Streptococcus pyogenes after 24 hrs by disk diffusion method
# Aspergillus fumigatus [4] = assay: Antifungal activity against Aspergillus fumigatus after 3 to 4 days by agar diffusion method
# Candida albicans [5] = assay: Antifungal activity against Candida albicans after 48 hrs by twofold broth dilution method
# Mus musculus [6] = assay: Analgesic activity in albino mouse assessed as response latency time to pain stimulus at 25 mg/kg, po after 3 hrs by hot plate method; set-up: unit not given here
# Talaromyces marneffei [7] = assay: Antifungal activity against Penicillium marneffei after 48 hrs by twofold broth dilution method
# Mus musculus [8] = assay: Analgesic activity in albino mouse assessed as response latency time to pain stimulus at 25 mg/kg, po after 1 hr by hot plate method; set-up: unit not given here
# Aspergillus fumigatus [9] = assay: Antifungal activity against Aspergillus fumigatus after 48 hrs by twofold broth dilution method
# Staphylococcus aureus [10] = assay: Antibacterial activity against Staphylococcus aureus after 24 hrs by disk diffusion method
# Pseudomonas aeruginosa [11] = assay: Antibacterial activity against Pseudomonas aeruginosa after 24 hrs by disk diffusion method
# Staphylococcus aureus [12] = assay: Antibacterial activity against Staphylococcus aureus after 24 hrs by broth dilution technique
# Aspergillus niger [13] = assay: Antifungal activity against Aspergillus niger after 3 to 4 days by agar diffusion method
# Klebsiella pneumoniae [14] = assay: Antibacterial activity against Klebsiella pneumoniae after 24 hrs by disk diffusion method
# Escherichia coli [15] = assay: Antibacterial activity against Escherichia coli after 24 hrs by broth dilution technique
# [16] = tested on: Trichophyton mentagrophytes; assay: Antifungal activity against Trichophyton mentagrophytes after 48 hrs by twofold broth dilution method
# Escherichia coli [17] = assay: Antibacterial activity against Escherichia coli after 24 hrs by disk diffusion method
# Klebsiella pneumoniae [18] = assay: Antibacterial activity against Klebsiella pneumoniae after 24 hrs by broth dilution technique
# Streptococcus pyogenes [19] = assay: Antibacterial activity against Streptococcus pyogenes after 24 hrs by broth dilution technique
# Pseudomonas aeruginosa [20] = assay: Antibacterial activity against Pseudomonas aeruginosa after 24 hrs by broth dilution technique
# Aspergillus niger [21] = assay: Antifungal activity against Aspergillus niger after 48 hrs by twofold broth dilution method
# Rattus norvegicus [22] = assay: Antiinflammatory activity in Wister albino rat assessed as inhibition of carrageenan-induced paw edema at 50 mg/kg, po administered 30 mins before carrageenan challenge measured after 3 hrs relative to control
# [23] = tested on: Trichophyton mentagrophytes; assay: Antifungal activity against Trichophyton mentagrophytes after 3 to 4 days by agar diffusion method
# Mus musculus [24] = assay: Analgesic activity in albino mouse assessed as response latency time to pain stimulus at 5 mg/kg, ip after 1 hr by hot plate method; details: route intraperitoneal
# Mus musculus [25] = assay: Analgesic activity in albino mouse assessed as response latency time to pain stimulus at 5 mg/kg, ip after 3 hrs by hot plate method; details: route intraperitoneal
# Rattus norvegicus [26] = assay: Antiinflammatory activity in Wister albino rat assessed as inhibition carrageenan-induced paw edema at 2 mg/kg, po administered 30 mins before carrageenan challenge measured after 3 hrs relative to control
Compound,Diameter of inhibition zone (Talaromyces marneffei [1]) [mm],Diameter of inhibition zone (Candida albicans [2]) [mm],Diameter of inhibition zone (Streptococcus pyogenes [3]) [mm],Diameter of inhibition zone (Aspergillus fumigatus [4]) [mm],MIC (Candida albicans [5]) [microg/cm3],Time (Mus musculus [6]),MIC (Talaromyces marneffei [7]) [microg/cm3],Time (Mus musculus [8]),MIC (Aspergillus fumigatus [9]) [microg/cm3],Diameter of inhibition zone (Staphylococcus aureus [10]) [mm],Diameter of inhibition zone (Pseudomonas aeruginosa [11]) [mm],MIC (Staphylococcus aureus [12]) [microg/cm3],Diameter of inhibition zone (Klebsiella pneumoniae [14]) [mm],MIC (Escherichia coli [15]) [microg/cm3],MIC [16] [microg/cm3],Diameter of inhibition zone (Escherichia coli [17]) [mm],MIC (Klebsiella pneumoniae [18]) [microg/cm3],MIC (Streptococcus pyogenes [19]) [microg/cm3],MIC (Pseudomonas aeruginosa [20]) [microg/cm3],MIC (Aspergillus niger [21]) [microg/cm3],further results
Fc1cc(-c2nc3scc(-c4ccc(Br)cc4)n3n2)c(Cl)cc1Cl,10,14,25,12,12.5,13.9,25,14.8,12.5,21,29,6.25,19,6.25,>100,24,6.25,6.25,6.25,25,Diameter of inhibition zone (Aspergillus niger [13]): 9 mm; inhibition in vivo at 50 mg/kg (Rattus norvegicus [22]): 25%
Fc1cc(-c2nc3scc(-c4ccc(Cl)cc4)n3n2)c(Cl)cc1Cl,19,20,19,19,6.25,12.9,6.25,13.2,6.25,26,31,6.25,17,6.25,6.25,26,6.25,6.25,6.25,6.25,Diameter of inhibition zone [23]: 19 mm; Diameter of inhibition zone (Aspergillus niger [13]): 24 mm; inhibition in vivo at 50 mg/kg (Rattus norvegicus [22]): 42.2%
CCOC(=O)C1(c2ccccc2)CCN(C)CC1 [MEPERIDINE],–,–,–,–,–,–,–,–,–,–,–,–,–,–,–,–,–,–,–,–,Time (Mus musculus [24]): 16.4 h; Time (Mus musculus [25]): 14.3 h
COc1ccc2c(c1)c(CC(=O)O)c(C)n2C(=O)c1ccc(Cl)cc1 [INDOMETHACIN],–,–,–,–,–,–,–,–,–,–,–,–,–,–,–,–,–,–,–,–,inhibition in vivo at 2 mg/kg (Rattus norvegicus [26]): 62.9%
Fc1cc(-c2nc3scc(-c4ccc(Cl)cc4Cl)n3n2)c(Cl)cc1Cl,12,10,15,8,25,9.6,12.5,8.96,25,14,13,12.5,13,12.5,>100,11,12.5,6.25,12.5,12.5,Diameter of inhibition zone (Aspergillus niger [13]): 14 mm; inhibition in vivo at 50 mg/kg (Rattus norvegicus [22]): 17.2%
O=C(O)c1cn(C2CC2)c2cc(N3CCNCC3)c(F)cc2c1=O [CIPROFLOXACIN],–,–,25,–,–,–,–,–,–,23,32,6.25,21,6.25,–,29,6.25,6.25,6.25,–,–
C[C@@H]1[C@H](O)[C@@H](C)/C=C/C=C/C=C/C=C/C=C/C=C/C=C/[C@H](O[C@@H]2O[C@H](C)[C@@H](O)[C@H](N)[C@@H]2O)C[C@@H]2O[C@](O)(C[C@@H](O)C[C@@H](O)[C@H](O)CC[C@@H](O)C[C@@H](O)CC(=O)O[C@H]1C)C[C@H](O)[C@H]2C(=O)O [AMPHOTERICIN B],23,20,–,21,6.25,–,6.25,–,6.25,–,–,–,–,–,6.25,–,–,–,–,12.5,Diameter of inhibition zone [23]: 19 mm; Diameter of inhibition zone (Aspergillus niger [13]): 25 mm
Cc1ccc(-c2csc3nc(-c4cc(F)c(Cl)cc4Cl)nn23)cc1,–,–,14,16,>100,8.4,>100,8.2,6.25,15,14,6.25,15,12.5,25,13,6.25,12.5,6.25,12.5,Diameter of inhibition zone [23]: 8 mm; Diameter of inhibition zone (Aspergillus niger [13]): 11 mm; inhibition in vivo at 50 mg/kg (Rattus norvegicus [22]): 0%
Fc1ccc(-c2csc3nc(-c4cc(F)c(Cl)cc4Cl)nn23)cc1,21,19,21,29,6.25,8.2,6.25,8.3,6.25,18,28,12.5,20,6.25,6.25,23,6.25,6.25,6.25,6.25,Diameter of inhibition zone [23]: 17 mm; Diameter of inhibition zone (Aspergillus niger [13]): 21 mm; inhibition in vivo at 50 mg/kg (Rattus norvegicus [22]): 48.8%
COc1ccc(-c2csc3nc(-c4cc(F)c(Cl)cc4Cl)nn23)cc1,17,17,23,–,6.25,11.96,6.25,11.1,>100,21,30,6.25,19,6.25,12.5,25,6.25,6.25,6.25,6.25,Diameter of inhibition zone [23]: 14 mm; Diameter of inhibition zone (Aspergillus niger [13]): 20 mm; inhibition in vivo at 50 mg/kg (Rattus norvegicus [22]): 40.6%
Fc1cc(-c2nc3scc(-c4cc(F)c(Cl)cc4Cl)n3n2)c(Cl)cc1Cl,23,18,24,20,6.25,13.6,6.25,14.21,6.25,23,30,6.25,19,6.25,6.25,28,6.25,6.25,6.25,12.5,Diameter of inhibition zone [23]: 18 mm; Diameter of inhibition zone (Aspergillus niger [13]): 22 mm; inhibition in vivo at 50 mg/kg (Rattus norvegicus [22]): 59.4%
O=[N+]([O-])c1ccc(-c2csc3nc(-c4cc(F)c(Cl)cc4Cl)nn23)cc1,18,16,12,17,6.25,10.9,6.25,11.2,6.25,12,15,12.5,11,6.25,25,15,12.5,12.5,6.25,>100,Diameter of inhibition zone [23]: 10 mm; inhibition in vivo at 50 mg/kg (Rattus norvegicus [22]): 10.9%
